Results as given in ChEMBL document CHEMBL4627246, “Pyroglutamide-Based P2X7 Receptor Antagonists Targeting Inflammatory Bowel Disease” (J Med Chem, 2020).

How the values were obtained:
Assay type in all cases: cell-based
OVCAR-8 = assay: Cytotoxicity against human OVCAR8 cells assessed as effect on cell growth at 10 uM incubated for 48 hrs by sulforhodamine B assay; conditions: ovcar-8, 48 h
SF-268 = assay: Cytotoxicity against human SF268 cells assessed as effect on cell growth at 10 uM incubated for 48 hrs by sulforhodamine B assay; conditions: sf-268, 48 h
786-0 = assay: Cytotoxicity against human 786-0 cells assessed as effect on cell growth at 10 uM incubated for 48 hrs by sulforhodamine B assay; conditions: 786-0, 48 h
NCI-H23 = assay: Cytotoxicity against human NCI-H23 cells assessed as effect on cell growth at 10 uM incubated for 48 hrs by sulforhodamine B assay; conditions: nci-h23, 48 h
SK-MEL-28 = assay: Cytotoxicity against human SK-MEL-28 cells assessed as effect on cell growth at 10 uM incubated for 48 hrs by sulforhodamine B assay; conditions: sk-mel-28, 48 h
HCC 2998 = assay: Cytotoxicity against human HCC2998 cells assessed as effect on cell growth at 10 uM incubated for 48 hrs by sulforhodamine B assay; conditions: hcc 2998, 48 h
BT-549 = assay: Cytotoxicity against human BT549 cells assessed as effect on cell growth at 10 uM incubated for 48 hrs by sulforhodamine B assay; conditions: bt-549, 48 h
HOP-92 = assay: Cytotoxicity against human HOP92 cells assessed as effect on cell growth at 10 uM incubated for 48 hrs by sulforhodamine B assay; conditions: hop-92, 48 h
HT-29 = assay: Cytotoxicity against human HT-29 cells assessed as effect on cell growth at 10 uM incubated for 48 hrs by sulforhodamine B assay; conditions: ht-29, 48 h
SN12C = assay: Cytotoxicity against human SN12C cells assessed as effect on cell growth at 10 uM incubated for 48 hrs by sulforhodamine B assay
A498 = assay: Cytotoxicity against human A498 cells assessed as effect on cell growth at 10 uM incubated for 48 hrs by sulforhodamine B assay; conditions: a498, 48 h
OVCAR-5 = assay: Cytotoxicity against human OVCAR5 cells assessed as effect on cell growth at 10 uM incubated for 48 hrs by sulforhodamine B assay; conditions: ovcar-5, 48 h
NCI-H226 = assay: Cytotoxicity against human NCI-H226 cells assessed as effect on cell growth at 10 uM incubated for 48 hrs by sulforhodamine B assay; conditions: nci-h226, 48 h
SW-620 = assay: Cytotoxicity against human SW620 cells assessed as effect on cell growth at 10 uM incubated for 48 hrs by sulforhodamine B assay; conditions: sw-620, 48 h
MDA-MB-231 = assay: Cytotoxicity against human MDA-MB-231 cells assessed as effect on cell growth at 10 uM incubated for 48 hrs by sulforhodamine B assay; conditions: mda-mb-231, 48 h
SF-539 = assay: Cytotoxicity against human SF539 cells assessed as effect on cell growth at 10 uM incubated for 48 hrs by sulforhodamine B assay; conditions: sf-539, 48 h
NCI-H322M = assay: Cytotoxicity against human NCI-H322M cells assessed as effect on cell growth at 10 uM incubated for 48 hrs by sulforhodamine B assay
COLO 205 = assay: Cytotoxicity against human COLO205 cells assessed as effect on cell growth at 10 uM incubated for 48 hrs by sulforhodamine B assay; conditions: colo 205, 48 h
A549 = assay: Cytotoxicity against human A549/ATCC cells assessed as effect on cell growth at 10 uM incubated for 48 hrs by sulforhodamine B assay; conditions: a549, 48 h
SR = assay: Cytotoxicity against human SR cells assessed as effect on cell growth at 10 uM incubated for 48 hrs by sulforhodamine B assay

Measured: Activity

O=C1CCCC(C(=O)NCc2ccc(Cl)cc2Cl)N1 (stereo not given)
Non-Toxic: all assays above

COc1ccccc1CN1C(=O)[C@@H]2C/C(=C\N(C)C)C(=O)N2C1N(C)C (stereo not given in full)
Non-Toxic: all assays above

O=C1N[C@H](C(=O)NCc2ccc(Cl)cc2Cl)C/C1=N\O (stereo in doubt)
Non-Toxic: all assays above

O=C(NCCc1ccccc1)[C@@H]1CCC(=O)N1Cc1ccc(Cl)cc1Cl
Non-Toxic: all assays above
